Key:
Format in all cases: in vivo
Glycine max = test: Crop compatibility pre-emergence (greenhouse pot trial); settings: application rate 80 g/ha, effect vs untreated controls
How it was run: (§1)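 Greenhouse pot test in which WP or EC formulations are applied to the covering soil before emergence (600 L/ha water, 0.5% additive). Crop effects are scored by eye as % after about 3 weeks, relative to untreated plants.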

Zea mays = test: as above; settings: application rate 80 g/ha, effect vs untreated controls
How it was run: as §1

Triticum aestivum = test: Crop compatibility post-emergence (greenhouse pot trial)
How it was run: (§2)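 Crop seeds sown in sandy loam and grown in the greenhouse 2 to 3 weeks were treated at the one-leaf stage. WP or EC formulations were sprayed as aqueous suspension/emulsion with 0.5% additive at 600 L/ha. Damage was scored visually about 3 weeks later versus untreated controls (0% = like control, 100% = dead).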

Oryza sativa = test: as above
How it was run: as §2

Abutilon theophrasti [1] = test: Herbicidal action pre-emergence (greenhouse pot trial); settings: application rate 320 g/ha, scored after about 3 weeks
How it was run: (§3)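 Pre-emergence: WP or EC formulations sprayed onto covering soil over sown seeds as aqueous suspension/emulsion with 0.5% additive, 600 L/ha water, at 320 g/ha or lower. Visual percent efficacy versus untreated controls after about 3 weeks in greenhouse (100% = plants dead).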

Echinochloa crus-galli [2] = test: as above; settings: application rate 320 g/ha, scored after about 3 weeks
How it was run: as §3

Stellaria media [3] = test: as above; settings: application rate 320 g/ha, scored after about 3 weeks
How it was run: as §3

Digitaria sanguinalis [4] = test: as above; settings: application rate 80 g/ha
How it was run: as §3

Setaria viridis [5] = test: as above; settings: application rate 320 g/ha, scored after about 3 weeks
How it was run: as §3

Lolium rigidum [6] = test: as above; settings: application rate 320 g/ha
How it was run: as §3

Hordeum murinum [7] = test: as above; settings: application rate 320 g/ha
How it was run: as §3

Matricaria inodora [8] = test: as above; settings: application rate 320 g/ha, scored after about 3 weeks
How it was run: as §3

Alopecurus myosuroides [9] = test: as above; settings: application rate 320 g/ha, scored after about 3 weeks
How it was run: as §3

Veronica persica [10] = test: as above; settings: application rate 320 g/ha
How it was run: as §3

Amaranthus retroflexus [11] = test: as above; settings: application rate 320 g/ha, scored after about 3 weeks
How it was run: as §3

Pharbitis purpurea [12] = test: as above; settings: application rate 320 g/ha
How it was run: as §3

Viola tricolor [13] = test: as above; settings: application rate 320 g/ha, scored after about 3 weeks
How it was run: as §3

Abutilon theophrasti [14] = test: Herbicidal action post-emergence (greenhouse pot trial); settings: application rate 80 g/ha, scored visually after about 3 weeks vs untreated controls
How it was run: (§4)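 Weed seeds sown in sandy loam were grown in a greenhouse for 2–3 weeks and treated at the one-leaf stage. WP or EC formulations, with 0.5% additive, were sprayed on green parts at a water rate of 600 L/ha and at 80 g/ha or lower. Efficacy was scored visually about 3 weeks later against untreated controls.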

Echinochloa crus-galli [15] = test: as above; settings: application rate 80 g/ha, scored visually after about 3 weeks vs untreated controls
How it was run: as §4

Stellaria media [16] = test: as above; settings: application rate 80 g/ha, scored visually after about 3 weeks vs untreated controls
How it was run: as §4

Digitaria sanguinalis [17] = test: as above; settings: application rate 80 g/ha
How it was run: as §4

Setaria viridis [18] = test: as above; settings: application rate 80 g/ha, scored visually after about 3 weeks vs untreated controls
How it was run: as §4

Lolium rigidum [19] = test: as above; settings: application rate 80 g/ha, scored visually after about 3 weeks vs untreated controls
How it was run: as §4

Hordeum murinum [20] = test: as above; settings: application rate 80 g/ha, scored visually after about 3 weeks vs untreated controls
How it was run: as §4

Matricaria inodora [21] = test: as above; settings: application rate 80 g/ha, scored visually after about 3 weeks vs untreated controls
How it was run: as §4

Polygonum convolvulus = test: as above; settings: application rate 80 g/ha, scored visually after about 3 weeks vs untreated controls
How it was run: as §4

Alopecurus myosuroides [22] = test: as above; settings: application rate 80 g/ha, scored visually after about 3 weeks vs untreated controls
How it was run: as §4

Veronica persica [23] = test: as above; settings: application rate 80 g/ha
How it was run: as §4

Amaranthus retroflexus [24] = test: as above; settings: application rate 80 g/ha, scored visually after about 3 weeks vs untreated controls
How it was run: as §4

Pharbitis purpurea [25] = test: as above; settings: application rate 80 g/ha
How it was run: as §4

Viola tricolor [26] = test: as above; settings: application rate 80 g/ha
How it was run: as §4

Avena fatua = test: Herbicidal action pre-emergence (greenhouse pot trial); settings: application rate 320 g/ha
How it was run: as §3

Cyperus esculentus = test: as above; settings: application rate 320 g/ha
How it was run: as §3

Row | Compound | Abutilon theophrasti (Efficacy in %) (Abutilon theophrasti [1]) [%] | Echinochloa crus-galli (Efficacy in %) (Echinochloa crus-galli [2]) [%] | Stellaria media (Efficacy in %) (Stellaria media [3]) [%] | Setaria viridis (Efficacy in %) (Setaria viridis [5]) [%] | Lolium rigidum (Efficacy in %) (Lolium rigidum [6]) [%] | Hordeum murinum (Efficacy in %) (Hordeum murinum [7]) [%] | Matricaria inodora (Efficacy in %) (Matricaria inodora [8]) [%] | Veronica persica (Efficacy in %) (Veronica persica [10]) [%] | Amaranthus retroflexus (Efficacy in %) (Amaranthus retroflexus [11]) [%] | Pharbitis purpurea (Efficacy in %) (Pharbitis purpurea [12]) [%] | Viola tricolor (Efficacy in %) (Viola tricolor [13]) [%] | Abutilon theophrasti (Efficacy in %) (Abutilon theophrasti [14]) [%] | Echinochloa crus-galli (Efficacy in %) (Echinochloa crus-galli [15]) [%] | Stellaria media (Efficacy in %) (Stellaria media [16]) [%] | Setaria viridis (Efficacy in %) (Setaria viridis [18]) [%] | Lolium rigidum (Efficacy in %) (Lolium rigidum [19]) [%] | Matricaria inodora (Efficacy in %) (Matricaria inodora [21]) [%] | Polygonum convolvulus (Efficacy in %) (Polygonum convolvulus) [%] | Alopecurus myosuroides (Efficacy in %) (Alopecurus myosuroides [22]) [%] | Veronica persica (Efficacy in %) (Veronica persica [23]) [%] | further results
1 | CCOCCCOC(=O)C(C)Sc1cc(-n2c(=O)cc(C(F)(F)F)n(C)c2=O)c(F)cc1Cl (stereo not drawn) [I.1-27] | 100 | 100 | 100 | 100 | 90 | 80 | 100 | 100 | 100 | 100 | 100 | 100 | 100 | 100 | 100 | 80 | 100 | 100 | 90 | 100 | Glycine max (Efficacy in %) (Glycine max): 20%; Zea mays (Efficacy in %) (Zea mays): 0%; Triticum aestivum (Efficacy in %) (Triticum aestivum; application rate 5 g/ha): 10%; Oryza sativa (Efficacy in %) (Oryza sativa; application rate 5 g/ha): 10%; Digitaria sanguinalis (Efficacy in %) (Digitaria sanguinalis [4]): 100%; Alopecurus myosuroides (Efficacy in %) (Alopecurus myosuroides [9]): 80%; Digitaria sanguinalis (Efficacy in %) (Digitaria sanguinalis [17]): 100%; Hordeum murinum (Efficacy in %) (Hordeum murinum [20]): 80%; Amaranthus retroflexus (Efficacy in %) (Amaranthus retroflexus [24]): 100%; Pharbitis purpurea (Efficacy in %) (Pharbitis purpurea [25]): 100%; Viola tricolor (Efficacy in %) (Viola tricolor [26]): 100%
2 | CC1CC(COC(=O)C(C)Sc2cc(-n3c(=O)cc(C(F)(F)F)n(C)c3=O)c(F)cc2Cl)CO1 (stereo not drawn) [I.1-73] | 100 | 100 | 100 | 100 | 100 | 90 | 100 | 100 | 100 | 100 | 100 | 100 | 100 | 100 | 100 | 90 | 100 | 100 | 90 | 100 | Glycine max (Efficacy in %) (Glycine max): 0%; Zea mays (Efficacy in %) (Zea mays): 0%; Triticum aestivum (Efficacy in %) (Triticum aestivum; application rate 80 g/ha): 20%; Oryza sativa (Efficacy in %) (Oryza sativa; application rate 20 g/ha): 5%; Digitaria sanguinalis (Efficacy in %) (Digitaria sanguinalis [4]): 100%; Avena fatua (Efficacy in %) (Avena fatua): 90%; Digitaria sanguinalis (Efficacy in %) (Digitaria sanguinalis [17]): 100%; Hordeum murinum (Efficacy in %) (Hordeum murinum [20]): 80%; Amaranthus retroflexus (Efficacy in %) (Amaranthus retroflexus [24]): 100%; Pharbitis purpurea (Efficacy in %) (Pharbitis purpurea [25]): 100%; Viola tricolor (Efficacy in %) (Viola tricolor [26]): 100%
3 | CC(Sc1cc(-n2c(=O)cc(C(F)(F)F)n(C)c2=O)c(F)cc1Cl)C(=O)NCC1CCCS1(=O)=O (stereo not drawn) [I.1-275] | 100 | 100 | 100 | 100 | 90 | 90 | 100 | 100 | 100 | 100 | 100 | 100 | 90 | 100 | 100 | 80 | 100 | 100 | 90 | 100 | Triticum aestivum (Efficacy in %) (Triticum aestivum; application rate 20 g/ha): 20%; Oryza sativa (Efficacy in %) (Oryza sativa; application rate 20 g/ha): 20%; Cyperus esculentus (Efficacy in %) (Cyperus esculentus): 80%; Avena fatua (Efficacy in %) (Avena fatua): 100%; Alopecurus myosuroides (Efficacy in %) (Alopecurus myosuroides [9]): 100%; Amaranthus retroflexus (Efficacy in %) (Amaranthus retroflexus [24]): 100%; Pharbitis purpurea (Efficacy in %) (Pharbitis purpurea [25]): 100%; Viola tricolor (Efficacy in %) (Viola tricolor [26]): 100%
